# Source: paper PMC11783601, “Analogue-Sensitive Inhibition of Histone Demethylases Uncovers Member-Specific Function in Ribosomal Protein Synthesis” (Journal of the American Chemical Society, 2025)
# Key:
# Assay type in all cases: biochemical
# [1] = molecular target: T1, ALKBH5 (Homo sapiens, UniProt Q6P6C2); test: MALDI-based assay on m6A RNA substrate; conditions: MALDI-TOF, m6A oligonucleotide
# T1 construct: we recombinantly expressed the catalytic domains of 12 wild type dioxygenases; His; made in house; host or cells: E. coli BL21 (DE3)
# Procedure: (§1) MALDI-based assay for FTO and ALKBH5: To determine the enzymatic activity of FTO and
# (§2) ALKBH5 recombinant proteins in the presence of L-Leu NOG 6, a previously published methods
# (§3) were utilized.15, 18 Briefly,10 µM of each protein was incubated in the presence of 10 µM RNA
# (§4) 7.5, 150 mM KCl, 50 µM L-Leu NOG or equivalent volume of water in 10 µL aliquots. The
# (§5) samples were placed on ice for 10 minutes followed by addition of 200 µM 2OG or equivalent
# (§6) volume of water. After incubation at 37 °C for 30 minutes, samples were desalted with 3 µL of BT
# (§7) spotted on a MALDI plate with 1uL sample and 1uL of 3-HPA matrix and monitored with Bruker
# (§8) FlexControl in the reflectron negative mode and analyzed on Bruker FlexAnalysis software.
# [2] = molecular target: T2, FTO (Homo sapiens, UniProt Q9C0B1); test: MALDI-based assay on m6A RNA substrate; conditions: MALDI-TOF, m6A oligonucleotide
# T2 construct: we recombinantly expressed the catalytic domains of 12 wild type dioxygenases; His (N); made in house; host or cells: E. coli BL21 (DE3)
# Procedure: as §1, §2, §3, §4, §5, §6, §7, §8
# [3] = molecular target: T3, ALKBH2 (Homo sapiens, UniProt Q6NS38); test: Dot blot-based assay for ALKBH2 on genomic DNA; conditions: genomic DNA from HEK293T cells, 6 (µM): 100
# T3 construct: we recombinantly expressed the catalytic domains of 12 wild type dioxygenases; 6xHis (N); made in house; host or cells: E. coli BL21 (DE3)
# [4] = molecular target: T4, KDM4A-F185A (Homo sapiens, UniProt O75164, F185A); test: Coupled fluorescence end-point assay for IC50
# T4 construct: human KDM4A-jmjC domain (catalytic domain of KDM4A); 6xHis (N); host or cells: E. coli BL21 (DE3)
# T4 sequence (O75164 142-308 F185A limits assumed): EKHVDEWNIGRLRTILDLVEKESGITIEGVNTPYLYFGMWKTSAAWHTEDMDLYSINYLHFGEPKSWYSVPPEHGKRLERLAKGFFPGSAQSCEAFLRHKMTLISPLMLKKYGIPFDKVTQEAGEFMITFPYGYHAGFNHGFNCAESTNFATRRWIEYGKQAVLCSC
# Procedure: To probe the efficacy of bulky NOGs against the mutant, the inhibitory constant at half-maximal (IC50) was determined by the coupled enzymatic assay using increasing amounts of the NOG analogue at fixed concentrations of cofactor and substrate.
# NADH (ACROS, cat #124530050) was added to assay buffer (50 mM HEPES pH 8, 50 µM (NH4)2Fe(SO4)2, 1 mM L-ascorbic acid, 1 mM NAD+, 200 nM FDH, and 1 µM KDM4A) in varying concentrations (0-10 µM). The experiments were performed in 384-well white Corning plates. The fluorescence intensity was measured with excitation = 340 nm and emission = 490 nm on a TECAN Infinite M1000Pro. Triplicate values were taken for each concentration.
# The set up and analysis for IC50 of L-Leu NOG against KDM4A F185A enzyme was similar to that described in the coupled fluorescence assay section, but adjusted to function as an end point assay. The assay composed of an enzyme cocktail (50mM HEPES pH 8.0, 75 µM (NH4)2Fe(SO4)2, 2 mM L-ascorbic acid, 1 mM NAD+, 200 nM FDH, 3 µM wild type KDM4A or KDM4A-F185A, and varying concentration of compounds (NOGs 6, 9 and 10) and a substrate cocktail (200 µM […]
# 2OG and 60 µM H3K9me3 peptide). […]
# IC50 measurements were performed in triplicates. The data was plotted in GraphPad Prism to the equation Y=Bottom + (Top-Bottom)/(1+10^(X-LogIC50)), where Y = % Activity, and Bottom and Top being the lower and upper most plateaus of percent activity, respectively. […]
# T1 sequence (Q6P6C2 67-394 limits assumed): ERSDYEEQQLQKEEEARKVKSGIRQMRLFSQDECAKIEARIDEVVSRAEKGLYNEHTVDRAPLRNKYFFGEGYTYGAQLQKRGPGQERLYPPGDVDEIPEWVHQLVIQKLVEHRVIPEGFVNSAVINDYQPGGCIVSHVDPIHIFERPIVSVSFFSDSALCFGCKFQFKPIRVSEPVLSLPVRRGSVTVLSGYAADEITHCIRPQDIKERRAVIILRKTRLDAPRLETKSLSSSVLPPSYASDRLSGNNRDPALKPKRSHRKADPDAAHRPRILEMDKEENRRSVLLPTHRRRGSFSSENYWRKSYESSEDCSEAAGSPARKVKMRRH
# T2 sequence (Q9C0B1 32-327 limits assumed): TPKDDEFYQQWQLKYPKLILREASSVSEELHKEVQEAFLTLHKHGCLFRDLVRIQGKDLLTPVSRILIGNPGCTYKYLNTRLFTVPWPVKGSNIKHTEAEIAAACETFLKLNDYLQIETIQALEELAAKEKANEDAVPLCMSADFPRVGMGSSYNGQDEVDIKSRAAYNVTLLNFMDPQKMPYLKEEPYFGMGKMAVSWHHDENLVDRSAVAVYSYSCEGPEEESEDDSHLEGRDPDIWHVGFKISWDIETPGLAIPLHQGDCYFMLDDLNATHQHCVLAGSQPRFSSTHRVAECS
# T3 sequence (Q6NS38 152-257 limits assumed): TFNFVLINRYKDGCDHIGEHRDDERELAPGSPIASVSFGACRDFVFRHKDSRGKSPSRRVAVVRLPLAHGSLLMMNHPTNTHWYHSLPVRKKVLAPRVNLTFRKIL
structure (smiles),measurement,setting,value
"CC(C)CC(NC(=O)C(=O)O)C(=O)O (stereo not drawn) [compound 6, N-oxalyl leucine]",inhibition of ALKBH5,[1],No inhibition
same,inhibition of FTO,[2],No inhibition
same,inhibition of ALKBH2,[3],No inhibition
same,IC50,"[4]; dose-dependent inhibition of F185A, 200 µM 2OG, 60 µM H3K9me3 peptide",700 ± 100 nM
same,IC50,"[4]; time-dependent inhibition of F185A, 1 hour",700 ± 100 nM
same,IC50,"[4]; time-dependent inhibition of F185A, 2 hour",1200 ± 200 nM
same,IC50,"[4]; time-dependent inhibition of F185A, 3 hour",1500 ± 300 nM
same,IC50,"[4]; time-dependent inhibition of F185A, 4 hour",1800 ± 500 nM
same,IC50,"[4]; time-dependent inhibition of F185A, 5 hour (text: monitored over more than 5 h)",2200 ± 500 nM
